Data on 20 compounds can be found in patent publication US20260226029A1, “1-(1-Oxo-1,2-Dihydrophthalazin-6-yl)Cycloalkyl-1-Carboxamide Derivatives as MTA-Cooperative Inhibitors of PRMT5” (BeOne Medicines I GmbH, priority 2023, published 2026).

In one test the test system is HCT116-MTAP-KO. Description: Compounds cell killing in HCT116 isogenic pair (CellTiter-Glo, 6 days), MTAP-KO cells. It counts as cell-based. The following applies: Homo sapiens, HCT-116, 144 h, Cell Titer-Glo, 0-10 μM. An excerpt: (§1) HCT116 cell line (ATCC, CCL-247) was isolated from the colon of an adult with colon cancer. It has a mutation in codon 13 of the ras proto-oncogene and can be used as a positive control for PCR assays of mutation in this codon. HCT116-MTAP-KO was knocked-out-MTAP-gene based HCT116, and a single clone was passed for this assay. HCT116-mock-RNA-KO was knocked-out-mock-gene based HCT116 with MTAP wildtype genotype. The base medium for HCT116 isogenic pair is RPMI 1640, HEPES (Gibco, 22400105). To make the complete growth medium, add the following components to the base medium: fetal bovine serum to a final concentration of 10% (Gibco, 10099-141C). The cell line was grown in a humidified 5% CO2 atmosphere at 37° C. and regularly tested for the presence of mycoplasma with MycoAlert™ PLUS Mycoplasma Detection Kit (Lonza, LT07-710).
(§2) • Seed HCT116-mock-RNA-KO (4E2/well) or HCT116-MTAP-KO (4E2/well) cells into a 96-well plate (Greiner: 655090), 100 µL/well. • Incubate at 37° C., 5% CO2, overnight. • Add 50 μL fresh growth-medium containing serial dilution of compounds for a final compound concentration of 0-10 μM to each well. • Incubate at 37° C., 5% CO2, 6 days. • The cell viability detected by Cell Titer-Glo (Promega, G7573). Add 70 μL of CellTiter-Glo® reagent in each well. • Incubate at room temperature for 10 minutes to stabilize luminescent signal. • Analyze with Microplate Reader (TECAN, SPARK) and fit IC50 using Prism® 9.

In the next test the test system is HCT116-mock-RNA-KO. Description: Compounds cell killing in HCT116 isogenic pair (CellTiter-Glo, 6 days), mock-KO (MTAP wildtype) cells. It is filed as cell-based. The conditions noted are these: Homo sapiens, HCT-116, 144 h, Cell Titer-Glo, 0-10 μM.
From the text: as §1, §2
(ATP-based viability assays read luminescence as a measure of living cells.)

Where only a bound is given, the exact number is not on record here.

Turning to `C[C@H]1CCC[C@@H](c2ccc(C(F)(F)F)cn2)N1C(=O)C1(c2ccc3c(=O)[nH]nc(CN)c3c2)CC1` (racemic) [Example 24, (±)-4-(aminomethyl)-6-(1-((2S,6S)-2-methyl-6-(5-(trifluoromethyl)pyridin-2-yl)piperidine-1-carbonyl)cyclopropyl)phthalazin-1(2H)-one], the figures for the IC50 with HCT116-MTAP-KO and with HCT116-mock-RNA-KO were 5260 nM and above 10000 nM, respectively.
The like results for `NCc1n[nH]c(=O)c2ccc(C3(C(=O)N(Cc4ccc(C(F)(F)F)cn4)C4CCCc5cccnc54)CC3)cc12` (stereo not shown) [Example 1, 1-(4-(aminomethyl)-1-oxo-1,2-dihydrophthalazin-6-yl)-N-(5,6,7,8-tetrahydroquinolin-8-yl)-N-((5-(trifluoromethyl)pyridin-2-yl)methyl)cyclopropane-1-carboxamide] were, in that order, 98 nM and above 10000 nM.
Taken in the same sequence, the figures for `NCc1n[nH]c(=O)c2ccc(C3(C(=O)N(Cc4ccc(C(F)(F)F)cn4)[C@@H]4CCCc5cccnc54)CC3)cc12` [Example 2A, (R)-1-(4-(aminomethyl)-1-oxo-1,2-dihydrophthalazin-6-yl)-N-(5,6,7,8-tetrahydroquinolin-8-yl)-N-((5-(trifluoromethyl)pyridin-2-yl)methyl)cyclopropane-1-carboxamide] were 98 nM and 3680 nM.
Regarding `NCc1n[nH]c(=O)c2ccc(C3(C(=O)N(Cc4ccc(C(F)(F)F)cn4)[C@H]4CCCc5cccnc54)CC3)cc12` [Example 2B, (S)-1-(4-(aminomethyl)-1-oxo-1,2-dihydrophthalazin-6-yl)-N-(5,6,7,8-tetrahydroquinolin-8-yl)-N-((5-(trifluoromethyl)pyridin-2-yl)methyl)cyclopropane-1-carboxamide], the IC50 with HCT116-MTAP-KO and with HCT116-mock-RNA-KO was above 10000 nM each time.
`NCc1n[nH]c(=O)c2ccc(C3(C(=O)N(Cc4ccc(-c5c(Cl)cccc5Cl)cn4)C4CCCc5cccnc54)CC3)cc12` (stereo not shown) [Example 3, 1-(4-(aminomethyl)-1-oxo-1,2-dihydrophthalazin-6-yl)-N-((5-(2,6-dichlorophenyl)pyridin-2-yl)methyl)-N-(5,6,7,8-tetrahydroquinolin-8-yl)cyclopropane-1-carboxamide]: the IC50 (commonly the midpoint of a concentration-inhibition curve) in the test on HCT116-MTAP-KO came out at 57 nM; in the test on HCT116-mock-RNA-KO, 3870 nM.
In the case of `NCc1n[nH]c(=O)c2ccc(C3(C(=O)N(Cc4ccc(-c5c(Cl)cccc5Cl)cn4)[C@@H]4CCCc5cccnc54)CC3)cc12` [Example 4A, (R)-1-(4-(aminomethyl)-1-oxo-1,2-dihydrophthalazin-6-yl)-N-((5-(2,6-dichlorophenyl)pyridin-2-yl)methyl)-N-(5,6,7,8-tetrahydroquinolin-8-yl)cyclopropane-1-carboxamide], the IC50 in the test with HCT116-MTAP-KO came out at 85 nM; with HCT116-mock-RNA-KO it was 2950 nM.
Taken in the same sequence, the figures for `NCc1n[nH]c(=O)c2ccc(C3(C(=O)N(Cc4ccc(-c5c(Cl)cccc5Cl)cn4)[C@H]4CCCc5cccnc54)CC3)cc12` [Example 4B, (S)-1-(4-(aminomethyl)-1-oxo-1,2-dihydrophthalazin-6-yl)-N-((5-(2,6-dichlorophenyl)pyridin-2-yl)methyl)-N-(5,6,7,8-tetrahydroquinolin-8-yl)cyclopropane-1-carboxamide] were 1540 nM and 5910 nM.
The like results for `CC1(C)COc2nc(CN(C(=O)C3(c4ccc5c(=O)[nH]nc(CN)c5c4)CC3)C3CCCc4cccnc43)ccc21` (stereo not shown) [Example 5, 1-(4-(aminomethyl)-1-oxo-1,2-dihydrophthalazin-6-yl)-N-((3,3-dimethyl-2,3-dihydrofuro[2,3-b]pyridin-6-yl)methyl)-N-(5,6,7,8-tetrahydroquinolin-8-yl)cyclopropane-1-carboxamide] were, in that order, 707 nM and above 10000 nM.
As for `CC(C)(O)c1ccc(CN(C(=O)C2(c3ccc4c(=O)[nH]nc(CN)c4c3)CC2)C2CCCc3cccnc32)nc1` (stereo not shown) [Example 6, 1-(4-(aminomethyl)-1-oxo-1,2-dihydrophthalazin-6-yl)-N-((5-(2-hydroxypropan-2-yl)pyridin-2-yl)methyl)-N-(5,6,7,8-tetrahydroquinolin-8-yl)cyclopropane-1-carboxamide], the figures for the 50% inhibitory concentration (IC50) in the test on HCT116-MTAP-KO and in the test with HCT116-mock-RNA-KO were 2560 nM and above 10000 nM, respectively.
The like results for `Cc1cc(CN(C(=O)C2(c3ccc4c(=O)[nH]nc(CN)c4c3)CC2)C2CCCc3cccnc32)ncc1C(F)(F)F` (stereo not shown) [Example 7, 1-(4-(aminomethyl)-1-oxo-1,2-dihydrophthalazin-6-yl)-N-((4-methyl-5-(trifluoromethyl)pyridin-2-yl)methyl)-N-(5,6,7,8-tetrahydroquinolin-8-yl)cyclopropane-1-carboxamide] were, in that order, 285 nM and above 10000 nM.
Regarding `Cc1nc(CN(C(=O)C2(c3ccc4c(=O)[nH]nc(CN)c4c3)CC2)C2CCCc3cccnc32)ccc1-c1ccccc1` (stereo not shown) [Example 8, 1-(4-(aminomethyl)-1-oxo-1,2-dihydrophthalazin-6-yl)-N-((6-methyl-5-phenylpyridin-2-yl)methyl)-N-(5,6,7,8-tetrahydroquinolin-8-yl)cyclopropane-1-carboxamide], the IC50 turned out to be 255 nM with HCT116-MTAP-KO and 5250 nM with HCT116-mock-RNA-KO.
The like results for `NCc1n[nH]c(=O)c2ccc(C3(C(=O)N(Cc4ccc(C(F)(F)F)cn4)Cc4c(F)cccc4Cl)CC3)cc12` [Example 9, 1-(4-(aminomethyl)-1-oxo-1,2-dihydrophthalazin-6-yl)-N-(2-chloro-6-fluorobenzyl)-N-((5-(trifluoromethyl)pyridin-2-yl)methyl)cyclopropane-1-carboxamide] were, in that order, 222 nM and 4670 nM.
For `NCc1n[nH]c(=O)c2ccc(C3(C(=O)N(Cc4ccc(-c5ccccc5)cn4)C4CCCc5cccnc54)CC3)cc12` (stereo not shown) [Example 10, 1-(4-(aminomethyl)-1-oxo-1,2-dihydrophthalazin-6-yl)-N-((5-phenylpyridin-2-yl)methyl)-N-(5,6,7,8-tetrahydroquinolin-8-yl)cyclopropane-1-carboxamide], the results for the IC50 in the test on HCT116-MTAP-KO and in the test with HCT116-mock-RNA-KO were 18 nM and 7230 nM, respectively.
The like results for `NCc1n[nH]c(=O)c2ccc(C3(C(=O)N(Cc4ccc(-c5ccccc5)cn4)[C@@H]4CCCc5cccnc54)CC3)cc12` [Example 11A, (R)-1-(4-(aminomethyl)-1-oxo-1,2-dihydrophthalazin-6-yl)-N-((5-phenylpyridin-2-yl)methyl)-N-(5,6,7,8-tetrahydroquinolin-8-yl)cyclopropane-1-carboxamide] were, in that order, 57 nM and 2790 nM.
The like results for `NCc1n[nH]c(=O)c2ccc(C3(C(=O)N(Cc4ccc(-c5ccccc5)cn4)[C@H]4CCCc5cccnc54)CC3)cc12` [Example 11B, (S)-1-(4-(aminomethyl)-1-oxo-1,2-dihydrophthalazin-6-yl)-N-((5-phenylpyridin-2-yl)methyl)-N-(5,6,7,8-tetrahydroquinolin-8-yl)cyclopropane-1-carboxamide] were, in that order, 2090 nM and above 10000 nM.
Consider `Cc1nc(CN(C(=O)C2(c3ccc4c(=O)[nH]nc(CN)c4c3)CC2)C2CCCc3cccnc32)sc1I` (stereo not shown) [Example 12, 1-(4-(aminomethyl)-1-oxo-1,2-dihydrophthalazin-6-yl)-N-((5-iodo-4-methylthiazol-2-yl)methyl)-N-(5,6,7,8-tetrahydroquinolin-8-yl)cyclopropane-1-carboxamide], for which the half-maximal inhibitory concentration (IC50) in the test on HCT116-MTAP-KO was 482 nM; in the test with HCT116-mock-RNA-KO, 6010 nM.
Taken in the same sequence, the figures for `N#Cc1cccc(Cl)c1-c1ccc(CN(C(=O)C2(c3ccc4c(=O)[nH]nc(CN)c4c3)CC2)C2CCCc3cccnc32)nc1` (stereo not shown) [Example 13, 1-(4-(aminomethyl)-1-oxo-1,2-dihydrophthalazin-6-yl)-N-((5-(2-chloro-6-cyanophenyl)pyridin-2-yl)methyl)-N-(5,6,7,8-tetrahydroquinolin-8-yl)cyclopropane-1-carboxamide] were 62 nM and 3950 nM.
As to `CC(C)(C)c1ccc(CN(C(=O)C2(c3ccc4c(=O)[nH]nc(CN)c4c3)CC2)C2CCCc3cccnc32)nc1` (stereo not shown) [Example 14, 1-(4-(aminomethyl)-1-oxo-1,2-dihydrophthalazin-6-yl)-N-((5-(tert-butyl)pyridin-2-yl)methyl)-N-(5,6,7,8-tetrahydroquinolin-8-yl)cyclopropane-1-carboxamide], the values for the IC50 with HCT116-MTAP-KO and in the test on HCT116-mock-RNA-KO were 378 nM and above 10000 nM, respectively.
In the case of `NCc1n[nH]c(=O)c2ccc(C3(C(=O)N(Cc4ncc(Br)c5ccccc45)C4CCCc5cccnc54)CC3)cc12` (stereo not shown) [Example 15, 1-(4-(aminomethyl)-1-oxo-1,2-dihydrophthalazin-6-yl)-N-((4-bromoisoquinolin-1-yl)methyl)-N-(5,6,7,8-tetrahydroquinolin-8-yl)cyclopropane-1-carboxamide], the figures for the IC50 in the test on HCT116-MTAP-KO and in the test on HCT116-mock-RNA-KO were 942 nM and 5080 nM, respectively.
`Cn1nccc1-c1ccc(CN(C(=O)C2(c3ccc4c(=O)[nH]nc(CN)c4c3)CC2)C2CCCc3cccnc32)nc1` (stereo not shown) [Example 16, 1-(4-(aminomethyl)-1-oxo-1,2-dihydrophthalazin-6-yl)-N-((5-(1-methyl-1H-pyrazol-5-yl)pyridin-2-yl)methyl)-N-(5,6,7,8-tetrahydroquinolin-8-yl)cyclopropane-1-carboxamide]: the IC50 in the test on HCT116-MTAP-KO is 699 nM; with HCT116-mock-RNA-KO, above 10000 nM.
